The test system of the assay is finishing Nelore cattle in feedlot. The assay is described as follows: Animal performance trial: Crina Ruminants and Ronozyme Rumistar for finishing Nelore cattle in feedlot. It counts as in vivo. On the procedure:
The study has been carried out at facilities of Animal Science Department at ESALQ/USP (University of São Paulo), Piracicaba-SP, Brazil. Treatments have been allocated in fifty pens, with 6 animals per pen. Water has been supplied for ad libitum consumption and feed once a day. Cattle have been withheld from feed and water for 16 hours before body weight (BW) assessment at the beginning and at the end of the experiment. After 28 and 56 days body weight (BW) has been assessed to monitor the partial average daily gain. [table] [table]

As for `CC[C@@]1([C@@H]2O[C@@H]([C@H]3O[C@@](O)(CO)[C@H](C)C[C@@H]3C)C[C@@H]2C)CC[C@H]([C@]2(C)CC[C@]3(C[C@H](O)[C@@H](C)[C@@H]([C@@H](C)[C@@H](OC)[C@H](C)C(=O)O)O3)O2)O1` [MONENSIN, Monensin], under “After 59 days”, the “ADG (average daily gain)” value was 1.342b kg/d; the “DMI (dry matter intake)” value is listed as 8.63b kg/d; the “FE (feed efficiency), ADG:DMI” value was 0.155b. For the same compound, where the note is “adaptation period - 28 days”, the “ADG (average daily gain)” value was found to be 1.352b kg/d; the “DMI (dry matter intake)” value came out at 7.73b kg/d; the “FE (feed efficiency), ADG:DMI” value is 0.177bc.
